Results reported in patent US9353423B2, “HCV genotype 6 replicons” (priority 2012, dated 2016).
Read-outs that look alike come from different tables or passages of the source.

Tests used:
Pi-GT1b-Rluc replicon = experiment: Replicon antiviral assay, transient transfection, luciferase activity (GT1b); assay type: cell-based, Hepatitis C virus genotype 1b; details: Hepatitis C virus
Method: (§1) Replicon RNA were electroporated into 1C cells as described above. After transfection, cells were quickly transferred into 100 mL of pre-warmed culture medium, and 90 μl was seeded in 384-well plates at a density of 2,000 cells/well. Cells were treated with three-fold serial drug dilutions at 10 different concentrations. Cell plates were incubated at 37° C. for 3 days, after which culture medium was removed and cells were assayed for luciferase activity as markers for replicon levels. Luciferase expression was quantified using a commercial luciferase assay (Promega). Luciferase levels were converted into percentages relative to the levels in the untreated controls (defined as 100%), and data were fitted to the logistic dose-response equation y=a/[1+(x/b)^c] using XLFit4 software (IDBS, Emeryville, Calif.).
(§2) Five different classes of HCV inhibitors as listed in the first column were evaluated for their antiviral activities against Pi-GT6a-Rluc and Pi-GT1b-Rluc replicons in a high throughput 384-well transient transfection assay, by measuring luciferase activity (Table 5). The data represents an average of at least two independent experiments with standard deviations.

GT6aRluc-K272R replicon = experiment: Replicon antiviral assay, transient transfection, luciferase activity (GT6a, NS3 K272R); assay type: cell-based, Hepatitis C virus genotype 6a; details: for EC50: Hepatitis C virus, 1C cells, 384-well transient transfection, mean ± SD of at least two experiments
Method: as §1, §2

GT6aRluc-K34R replicon = experiment: Replicon antiviral assay, transient transfection, luciferase activity (GT6a, NS4A K34R); assay type: cell-based, Hepatitis C virus genotype 6a; details: for EC50: Hepatitis C virus, 1C cells, 384-well transient transfection, mean ± SD of at least two experiments
Method: as §1, §2

Pi-GT6a-Rluc replicon = experiment: Replicon antiviral assay, luciferase-encoding GT6a replicon (Table 4); assay type: cell-based, Hepatitis C virus genotype 6a; details: for EC50: Hepatitis C virus, GT6A, 72 h, read-out: GT6a EC50
Method: as §1

[1] = Table 5, 1C cells, 384-well transient transfection, mean ± SD of at least two experiments, read-out: GT1bRluc EC50
[2] = read-out: GT6aRluc-K272R EC50, Table 5
[3] = read-out: GT6aRluc-K34R EC50, Table 5
[4] = 72 h, Table 4, 1C cells, 384-well, 3 days, mean ± SD, read-out: GT1b EC50
[5] = Table 4, 1C cells, 384-well, 3 days, mean ± SD, adaptive mutation not stated
[6] = Table 5, read-out: GT6aRluc-K272R EC50
[7] = Table 5, read-out: GT6aRluc-K34R EC50

Structure (SMILES)	EC50 (Pi-GT1b-Rluc replicon; [1]) [nM]	EC50 (GT6aRluc-K272R replicon; [2]) [nM]	GT6a(K272R)/1b EC50 ratio (GT6aRluc-K272R replicon; Table 5)	EC50 (GT6aRluc-K34R replicon; [3]) [nM]	GT6a(K34R)/1b EC50 Ratio (GT6aRluc-K34R replicon; Table 5)	EC50 (Pi-GT1b-Rluc replicon; [4]) [nM]	EC50 (Pi-GT6a-Rluc replicon; [5]) [nM]	GT6a/GT1b EC50 ratio (Pi-GT6a-Rluc replicon; Table 4)	EC50 (GT6aRluc-K272R replicon; [6]) [nM]	EC50 (GT6aRluc-K34R replicon; [7]) [nM]	EC50 (Pi-GT6a-Rluc replicon) [nM]	antiviral activity against GT6a compared with GT1b (Pi-GT6a-Rluc replicon; summary of Table 4)
COc1ccc2c(O[C@@H]3C[C@H]4C(=O)N[C@]5(C(=O)O)C[C@H]5/C=C\CCCCC[C@H](NC(=O)OC5CCCC5)C(=O)N4C3)cc(-c3csc(NC(C)C)n3)nc2c1 [BILN-2061]	0.99 ± 0.1	17	17.2	17 ± 9	17.2							
CC(C)(C)NC(=O)N[C@H](C(=O)N1C[C@H]2[C@@H]([C@H]1C(=O)NC(CC1CCC1)C(=O)C(N)=O)C2(C)C)C(C)(C)C (some centres unmarked) [Boceprevir, boceprevir]	181 ± 42	185 ± 42	1	168 ± 21	0.9	188 ± 42	177 ± 21	0.9				
CCC1C[C@]1(NC(=O)[C@@H]1C[C@@H](Oc2cc(-c3csc(NC(C)C)n3)nc3c(Cl)c(OCCN4CCOCC4)ccc23)CN1C(=O)[C@@H](NC(=O)O[C@@H]1C[C@@H]2C[C@@H]2C1)C(C)(C)C)C(=O)O (some centres unmarked) [Compound A]						8.3 ± 1.6	72 ± 25	8.7				
COC(=O)N[C@H](C(=O)N1CC2(CC2)C[C@H]1c1nc(-c2ccc3c(c2)C(F)(F)c2cc(-c4ccc5cc([C@@H]6[C@H]7CC[C@H](C7)N6C(=O)[C@@H](NC(=O)OC)C(C)C)[nH]c5c4)ccc2-3)c[nH]1)C(C)C [Compound B]						0.007 ± 0.003	0.79 ± 0.05	113				
CC1=CC[C@H](C(=O)N(c2cc(C#CC(C)(C)C)sc2C(=O)O)[C@H]2CC[C@](O)(CO[C@H]3CCOC3)CC2)CC1 [Compound C]	3.5 ± 0.3		210.3		250.6	3.5 ± 0.3	877 ± 4	251	736 ± 18	877 ± 4		
COC(=O)N[C@H](C(=O)N1CCC[C@H]1c1nc(-c2ccc(-c3ccc(-c4c[nH]c([C@@H]5CCCN5C(=O)[C@@H](NC(=O)OC)C(C)C)n4)cc3)cc2)c[nH]1)C(C)C [Daclatasvir, daclatasvir]	0.034 ± 0.018		2.4		1.2	0.034 ± 0.018	0.06 ± 0.03	1.8	0.08 ± 0.04	0.04 ± 0.01		
CCc1cc(CC[C@]2(C3CCCC3)CC(O)=C(Cc3nc4nc(C)cc(C)n4n3)C(=O)O2)cc(CC)n1 [Filibuvir, filibuvir]	112 ± 13		31.6		>40	112 ± 13		32	3540 ± 93	> 4440	3540 ± 93	
CNC(=O)c1c(-c2ccc(F)cc2)oc2cc(N(CCO)S(C)(=O)=O)c(C3CC3)cc12 [HCV-796]	20 ± 5.5		1.1		1.1	20 ± 5.5	21 ± 0.5	1.0	21	21		retained activity against GT6a
CN(C)CCN(C)[C@H]1COc2ccccc2-c2c(C3CCCCC3)c3ccc(C(=O)O)cc3n2C1 [MK-3281]	534 ± 47		2.5		2.4				1310 ± 635	1280 ± 471		
C=C[C@@H]1C[C@]1(NC(=O)[C@@H]1C[C@@H]2CN1C(=O)[C@H](C(C)(C)C)NC(=O)O[C@@H]1C[C@H]1CCCCCc1nc3ccc(OC)cc3nc1O2)C(=O)NS(=O)(=O)C1CC1 [MK-5172]	0.74 ± 0.07		4.1		1.9	0.74 ± 0.07		3.1	3 ± 0.4	1.4 ± 0.3	2.3 ± 0.3	
CC(C)OC(=O)[C@H](C)N[P@](=O)(OC[C@H]1O[C@@H](n2ccc(=O)[nH]c2=O)[C@](C)(F)[C@@H]1O)Oc1ccccc1 [Sofosbuvir, sofosbuvir]	39 ± 1.1		0.4		0.4	39 ± 1.1	14 ± 4.1	0.4	14 ± 5	14 ± 4		
Fc1ccccc1-c1nc2ccn(Cc3ccc(-c4ccc(C(F)(F)F)cc4C(F)(F)F)nn3)cc-2n1 [Tegobuvir, tegobuvir]	2.6 ± 0.2		42.3		45.8	2.6 ± 0.2	119 ± 6	46	110 ± 21	119 ± 6		
CCC[C@H](NC(=O)[C@@H]1[C@H]2CCC[C@H]2CN1C(=O)[C@@H](NC(=O)[C@@H](NC(=O)c1cnccn1)C1CCCCC1)C(C)(C)C)C(=O)C(=O)NC1CC1 [Telaprevir]	428 ± 22		0.5		0.8	428 ± 22	349 ± 20	0.8	208 ± 41	349 ± 20		
